pIC50: −log10 of the molar value. Counter-ions that a name gives are not always drawn. Blank lines part the entries; values can stand above or below the compound they belong to.
Key:
[1] = target: T1, Muscarinic M2 (Homo sapiens, UniProt P08172); experiment: InVEST radioligand filter binding, Muscarinic M2; conditions: read-out: IC50 (M) of reference compound, tested in parallel
T1 sequence (P08172 1-466): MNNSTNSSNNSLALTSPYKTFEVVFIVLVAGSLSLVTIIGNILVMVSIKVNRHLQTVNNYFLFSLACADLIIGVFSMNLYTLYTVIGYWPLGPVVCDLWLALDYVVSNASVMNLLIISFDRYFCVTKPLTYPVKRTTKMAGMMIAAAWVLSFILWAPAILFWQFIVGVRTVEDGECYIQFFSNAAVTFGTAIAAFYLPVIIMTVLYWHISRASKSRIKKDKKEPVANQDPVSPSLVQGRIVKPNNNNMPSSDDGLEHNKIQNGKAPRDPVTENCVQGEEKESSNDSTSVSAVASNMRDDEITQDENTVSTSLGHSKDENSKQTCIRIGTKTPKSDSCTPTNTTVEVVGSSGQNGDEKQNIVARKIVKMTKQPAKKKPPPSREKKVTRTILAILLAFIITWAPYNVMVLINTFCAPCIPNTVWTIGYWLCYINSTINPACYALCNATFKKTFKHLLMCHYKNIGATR

[2] = target: T2, AHR-activation (Homo sapiens, UniProt P35869)
T2 sequence (P35869 11-848): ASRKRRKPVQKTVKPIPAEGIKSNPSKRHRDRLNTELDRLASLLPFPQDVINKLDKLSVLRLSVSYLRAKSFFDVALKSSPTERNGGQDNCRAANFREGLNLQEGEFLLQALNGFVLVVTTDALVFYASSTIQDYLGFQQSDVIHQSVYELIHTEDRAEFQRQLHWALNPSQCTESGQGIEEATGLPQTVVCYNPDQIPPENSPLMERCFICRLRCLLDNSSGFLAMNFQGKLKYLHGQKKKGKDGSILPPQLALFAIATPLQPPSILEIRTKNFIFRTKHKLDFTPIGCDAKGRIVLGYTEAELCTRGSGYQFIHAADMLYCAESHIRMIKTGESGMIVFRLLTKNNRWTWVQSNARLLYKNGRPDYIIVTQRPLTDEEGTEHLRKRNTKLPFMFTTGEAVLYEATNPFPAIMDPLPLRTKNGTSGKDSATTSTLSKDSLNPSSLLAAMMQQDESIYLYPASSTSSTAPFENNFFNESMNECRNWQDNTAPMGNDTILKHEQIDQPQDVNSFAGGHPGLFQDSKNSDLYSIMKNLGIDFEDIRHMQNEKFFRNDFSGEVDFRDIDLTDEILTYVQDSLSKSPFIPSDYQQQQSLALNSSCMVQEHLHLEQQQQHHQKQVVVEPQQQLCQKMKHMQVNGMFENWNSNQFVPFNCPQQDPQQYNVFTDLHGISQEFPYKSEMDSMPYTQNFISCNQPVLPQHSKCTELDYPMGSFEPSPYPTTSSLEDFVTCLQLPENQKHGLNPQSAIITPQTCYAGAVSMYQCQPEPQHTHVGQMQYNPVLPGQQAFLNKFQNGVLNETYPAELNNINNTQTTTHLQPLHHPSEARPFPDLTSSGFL

[3] = target: 5-HT1B (Homo sapiens, UniProt P28222); experiment: InVEST radioligand filter binding, 5-HT1B
5-HT1B, sequence (P28222 whole entry): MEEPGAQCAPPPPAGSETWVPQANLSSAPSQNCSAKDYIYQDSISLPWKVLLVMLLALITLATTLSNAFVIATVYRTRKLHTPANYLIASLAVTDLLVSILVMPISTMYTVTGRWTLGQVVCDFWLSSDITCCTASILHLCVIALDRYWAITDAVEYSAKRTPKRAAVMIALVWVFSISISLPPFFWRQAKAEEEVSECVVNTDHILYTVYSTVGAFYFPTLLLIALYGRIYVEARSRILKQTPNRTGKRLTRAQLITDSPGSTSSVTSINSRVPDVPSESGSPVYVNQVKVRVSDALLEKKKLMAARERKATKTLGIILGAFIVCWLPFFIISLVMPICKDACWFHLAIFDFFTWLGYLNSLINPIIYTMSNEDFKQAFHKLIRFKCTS

[4] = target: T3, 5-HT3 (Homo sapiens, UniProt P46098); experiment: InVEST radioligand filter binding, ion channel 5-HT3; conditions: read-out: IC50 (M) of reference compound, tested in parallel
T3 sequence (P46098 24-478): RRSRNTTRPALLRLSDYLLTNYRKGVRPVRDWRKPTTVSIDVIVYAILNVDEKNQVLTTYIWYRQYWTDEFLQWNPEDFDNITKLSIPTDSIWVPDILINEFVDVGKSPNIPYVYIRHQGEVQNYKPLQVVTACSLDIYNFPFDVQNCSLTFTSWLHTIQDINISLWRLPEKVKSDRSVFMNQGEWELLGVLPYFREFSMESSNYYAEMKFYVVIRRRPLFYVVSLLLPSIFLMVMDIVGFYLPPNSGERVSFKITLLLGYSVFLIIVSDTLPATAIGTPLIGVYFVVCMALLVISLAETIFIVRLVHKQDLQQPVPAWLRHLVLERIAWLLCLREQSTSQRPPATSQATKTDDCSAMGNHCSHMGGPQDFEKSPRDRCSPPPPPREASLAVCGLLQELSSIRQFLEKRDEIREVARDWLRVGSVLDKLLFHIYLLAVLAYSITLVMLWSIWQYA

[5] = target: PDE4A (Homo sapiens, UniProt P27815); experiment: InVEST enzymatic activity, PDE4A; type: biochemical; conditions: read-out: IC50 (M) of reference compound, tested in parallel
PDE4A, sequence (P27815 whole entry): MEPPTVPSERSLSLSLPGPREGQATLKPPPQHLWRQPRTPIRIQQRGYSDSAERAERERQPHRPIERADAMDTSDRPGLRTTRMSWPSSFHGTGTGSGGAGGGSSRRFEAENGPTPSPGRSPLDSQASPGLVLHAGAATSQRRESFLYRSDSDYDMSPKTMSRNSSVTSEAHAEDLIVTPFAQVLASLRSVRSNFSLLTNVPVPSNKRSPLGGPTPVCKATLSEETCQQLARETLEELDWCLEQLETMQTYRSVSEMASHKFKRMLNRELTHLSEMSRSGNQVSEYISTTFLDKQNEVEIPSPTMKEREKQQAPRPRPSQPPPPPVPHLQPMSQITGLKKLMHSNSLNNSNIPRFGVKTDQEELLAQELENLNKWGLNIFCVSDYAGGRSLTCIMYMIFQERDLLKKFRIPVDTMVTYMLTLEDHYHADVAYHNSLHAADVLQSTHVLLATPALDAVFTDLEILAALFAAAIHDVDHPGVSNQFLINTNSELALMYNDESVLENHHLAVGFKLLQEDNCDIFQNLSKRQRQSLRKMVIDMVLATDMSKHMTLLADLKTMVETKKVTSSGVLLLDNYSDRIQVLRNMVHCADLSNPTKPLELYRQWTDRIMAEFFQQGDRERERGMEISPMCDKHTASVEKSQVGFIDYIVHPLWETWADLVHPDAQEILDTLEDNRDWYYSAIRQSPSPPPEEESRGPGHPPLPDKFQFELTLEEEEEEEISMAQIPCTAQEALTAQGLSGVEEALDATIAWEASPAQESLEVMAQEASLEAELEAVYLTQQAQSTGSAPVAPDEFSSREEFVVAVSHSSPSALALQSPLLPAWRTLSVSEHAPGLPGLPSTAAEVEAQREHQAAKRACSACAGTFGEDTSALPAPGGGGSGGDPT

[6] = target: PDE3A (Homo sapiens, UniProt Q14432); experiment: InVEST enzymatic activity, PDE3A; type: biochemical; conditions: read-out: IC50 (M) of reference compound, tested in parallel
PDE3A, sequence (Q14432 whole entry): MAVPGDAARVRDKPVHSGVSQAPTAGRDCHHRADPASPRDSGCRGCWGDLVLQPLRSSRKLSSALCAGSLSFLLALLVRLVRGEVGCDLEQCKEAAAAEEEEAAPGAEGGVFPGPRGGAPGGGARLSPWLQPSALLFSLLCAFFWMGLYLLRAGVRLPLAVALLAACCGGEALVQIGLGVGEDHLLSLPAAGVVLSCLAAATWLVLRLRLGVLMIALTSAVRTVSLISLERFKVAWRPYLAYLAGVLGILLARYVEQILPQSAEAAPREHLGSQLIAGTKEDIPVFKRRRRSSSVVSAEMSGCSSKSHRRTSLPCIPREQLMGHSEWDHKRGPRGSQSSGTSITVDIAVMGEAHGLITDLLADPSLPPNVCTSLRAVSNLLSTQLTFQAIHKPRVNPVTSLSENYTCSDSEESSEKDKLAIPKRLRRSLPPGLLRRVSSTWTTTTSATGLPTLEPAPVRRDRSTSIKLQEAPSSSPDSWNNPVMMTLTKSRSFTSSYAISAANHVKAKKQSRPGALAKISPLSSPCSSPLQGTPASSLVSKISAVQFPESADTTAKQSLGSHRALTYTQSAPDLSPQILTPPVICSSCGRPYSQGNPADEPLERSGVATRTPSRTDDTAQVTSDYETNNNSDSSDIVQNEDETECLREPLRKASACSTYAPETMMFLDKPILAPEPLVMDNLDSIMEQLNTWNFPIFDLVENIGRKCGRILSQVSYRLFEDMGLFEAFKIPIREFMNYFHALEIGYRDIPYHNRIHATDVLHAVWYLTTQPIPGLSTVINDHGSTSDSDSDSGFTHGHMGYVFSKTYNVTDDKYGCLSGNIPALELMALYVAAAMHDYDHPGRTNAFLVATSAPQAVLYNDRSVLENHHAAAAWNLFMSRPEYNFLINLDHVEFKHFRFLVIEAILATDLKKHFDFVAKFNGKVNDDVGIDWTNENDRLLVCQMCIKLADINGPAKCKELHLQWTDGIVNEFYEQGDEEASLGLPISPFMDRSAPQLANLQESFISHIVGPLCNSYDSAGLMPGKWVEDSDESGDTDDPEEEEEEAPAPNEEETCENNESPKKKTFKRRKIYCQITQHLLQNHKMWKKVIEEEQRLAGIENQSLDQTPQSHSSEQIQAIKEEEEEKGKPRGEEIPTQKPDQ

[7] = target: T4, alpha2A adrenergic (Homo sapiens, UniProt P08913); experiment: InVEST radioligand filter binding, alpha2A adrenergic; conditions: read-out: IC50 (M) of reference compound, tested in parallel
T4 sequence (P08913 1-465): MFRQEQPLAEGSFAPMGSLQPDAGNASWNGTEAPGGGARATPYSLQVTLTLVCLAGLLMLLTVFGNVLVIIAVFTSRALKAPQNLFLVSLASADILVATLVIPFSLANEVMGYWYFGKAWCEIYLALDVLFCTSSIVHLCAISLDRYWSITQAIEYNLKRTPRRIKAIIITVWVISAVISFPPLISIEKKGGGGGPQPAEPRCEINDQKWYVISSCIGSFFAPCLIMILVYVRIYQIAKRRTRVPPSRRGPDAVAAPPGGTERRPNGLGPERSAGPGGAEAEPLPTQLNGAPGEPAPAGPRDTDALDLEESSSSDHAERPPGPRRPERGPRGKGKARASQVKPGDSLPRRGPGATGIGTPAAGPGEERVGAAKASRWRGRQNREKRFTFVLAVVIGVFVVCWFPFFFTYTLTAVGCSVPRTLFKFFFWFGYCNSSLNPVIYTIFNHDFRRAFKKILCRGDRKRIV

[8] = target: Thrombin alpha (Homo sapiens, UniProt P00734); experiment: InVEST enzymatic activity, Thrombin alpha; type: biochemical; conditions: read-out: IC50 (M) of reference compound, tested in parallel
[9] = target: T5, CCK (Homo sapiens, UniProt P32238); experiment: InVEST radioligand filter binding, CCK
T5 sequence (P32238 1-428): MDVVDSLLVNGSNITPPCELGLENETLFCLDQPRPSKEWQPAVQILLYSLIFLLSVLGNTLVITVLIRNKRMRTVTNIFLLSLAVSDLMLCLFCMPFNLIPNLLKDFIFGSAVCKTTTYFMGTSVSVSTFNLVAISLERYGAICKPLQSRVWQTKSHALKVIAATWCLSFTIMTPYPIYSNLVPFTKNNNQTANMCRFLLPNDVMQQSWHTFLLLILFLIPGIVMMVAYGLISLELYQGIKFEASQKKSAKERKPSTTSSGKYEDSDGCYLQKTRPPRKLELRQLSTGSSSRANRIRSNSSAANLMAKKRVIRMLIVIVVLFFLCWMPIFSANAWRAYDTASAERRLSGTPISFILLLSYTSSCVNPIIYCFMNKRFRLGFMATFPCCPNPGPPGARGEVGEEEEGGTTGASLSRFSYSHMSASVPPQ

[10] = target: T6, AHR-inhibition (Homo sapiens, UniProt P35869); experiment: InVEST fluorescence polarization binding/cell-based activity, AHR-inhibition; conditions: read-out: IC50 (M) of reference compound, + 10 nM FICZ, tested in parallel
T6 sequence (P35869 11-848): T2 sequence (P35869 11-848)

IC50 [1]: 1.79e-08 M
Compound: CCCN(CCC)CC1CCCCN1CCNC(=O)N1c2ccccc2C(=O)Nc2cccnc21 (stereo not shown) [AF-DX 384, reference compound]

pIC50 [2]: 7.98
Compound: O=Cc1c2[nH]c3ccccc3c2cc2[nH]c3ccccc3c12 [FICZ]

pIC50 [3]: 8.31
Compound: COc1ccc(NC(=O)c2ccc(-c3ccncc3)c(C)c2)cc1N1CCN(C)CC1 [GR125743, reference compound]

Compound: Cc1[nH]cnc1CCC(=O)c1cn(C)c2ccccc12 [GR 65630, reference compound]
IC50 [4]: 1.09e-09 M

IC50 [5]: 3e-05 M
IC50 [6]: 2.21e-05 M
Compound: CC(C)Cn1c(=O)n(C)c(=O)c2[nH]cnc21 [IBMX, reference compound]

IC50 [7]: 1.15e-08 M
Compound: COC1(C2=NCCN2)COc2ccccc2O1 (stereo not shown) [RX 821002, reference compound]

Compound: CCOC(=O)c1ccc(OC(=O)CCCCCN=C(N)N)cc1 [gabexate mesylate, reference compound]
IC50 [8]: 2.26e-06 M

pIC50 [9]: 8.42
Compound: CCCCCN(CCCCC)C(=O)C(CCC(=O)O)NC(=O)c1ccc(Cl)c(Cl)c1 (stereo not shown) [lorglumide, reference compound]

IC50 [10]: 2.9e-07 M
Compound: GNF-351 [reference compound]

From PMC10810011 (Expert opinion on drug delivery, 2023)
